Common to all, as to type: cell-based, human
One assay relates to sAPPβ. The assay can be described thus: sAPPβ in FAD1 iPS cell-derived nerve cells (secondary screening). More on the design: sAPPβ: scale not given here. The note with it: secondary screening, FAD1 iPS cell-derived nerve cells. How it is done: (§1) To further study reproducibility of the candidate drugs obtained by the primary screening, secondary screening was conducted. In addition to Aβ40, Aβ42, Aβ42/40 ratio, Aβ38, Aβ43, sAPPα, sAPPβ were also studied and each numerical value was obtained.

A further assay deals with Aβ38. The assay can be described thus: Aβ38 in FAD1 iPS cell-derived nerve cells (secondary screening). More on the design: scale not given here. The protocol:
as §1

The subject of another assay is Aβ43. The assay can be described thus: Aβ43 in FAD1 iPS cell-derived nerve cells (secondary screening). More on the design: scale not given here. How it is done: as §1
The next assay has as its system Aβ42/40 ratio. The assay can be described thus: Aβ42/40 ratio in FAD1 iPS cell-derived nerve cells (primary/secondary screening, dose dependency). The note with it: secondary screening. The method, boiled down: (§2)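 Cerebral cortex neurons were induced from FAD1 patient iPS cells by doxycycline-inducible NGN2, delivered by PiggyBac. Aβ40 and Aβ42 in the culture medium gave the Aβ42/40 ratio, with dose dependency examined in primary and secondary screens. The secondary screen also covered Aβ38, Aβ43, sAPPα and sAPPβ.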

The next assay relates to sAPPα. The assay can be described thus: sAPPα in FAD1 iPS cell-derived nerve cells (secondary screening). More on the design: scale not given here. The note with it: secondary screening, FAD1 iPS cell-derived nerve cells. How it is done:
as §1

Another assay has as its system Aβ42. The assay can be described thus: Aβ42 in FAD1 iPS cell-derived nerve cells (primary/secondary screening, dose dependency). The note with it: secondary screening, FAD1 iPS cell-derived nerve cells, numerical value (Aβ change rate). The method, boiled down: as §2

In the case of `Cc1cc2cc3c(C)cc(=O)oc3c(C)c2o1` [compound 91, TRIOXSALEN], in the assay on sAPPβ, the sAPPβ is on record as 1.02. This molecule came in with an Aβ38 in the assay with Aβ38 of 0.97. The molecule also returned an Aβ43 in the assay with Aβ43 of 1.01. In the assay on Aβ42/40 ratio, the “Ratio Aβ42/40” value worked out at 0.95. The sAPPα in the assay on sAPPα was determined as 0.82. This molecule showed an Aβ42 in the assay with Aβ42 of 0.84.
As for `O=c1oc2cc(O)ccc2s1` [compound 92, TIOXOLONE], the sAPPβ with sAPPβ was determined as 0.63. The Aβ38 in the assay with Aβ38 is listed as 0.76. In the assay on Aβ43, this molecule came in with an Aβ43 of 0.67. Besides, in the assay with Aβ42/40 ratio, the “Ratio Aβ42/40” value stood at 0.83. The same molecule yielded a sAPPα in the assay on sAPPα of 0.76. The Aβ42 with Aβ42 is listed as 0.55.
In the assay with sAPPβ, `CC(=O)Nc1cccc(O)c1` [compound 93, METACETAMOL] displayed a sAPPβ of 0.89. This molecule came in with an Aβ38 in the assay with Aβ38 of 0.95. Further, the Aβ43 in the assay on Aβ43 worked out at 0.74. The “Ratio Aβ42/40” value with Aβ42/40 ratio was 0.86. For the same molecule, the sAPPα with sAPPα is reported as 0.83. Also, the Aβ42 in the assay with Aβ42 came out at 0.77.
The molecule `Oc1ccc(Cl)cc1Cc1cc(Cl)ccc1O` [compound 94, DICHLOROPHENE] displayed a sAPPβ in the assay with sAPPβ of 0.85. In the assay on Aβ38, this molecule showed an Aβ38 of 0.94. This molecule also came in with an Aβ43 in the assay on Aβ43 of 0.87. Besides, the “Ratio Aβ42/40” value in the assay with Aβ42/40 ratio was determined as 0.89. In addition, the sAPPα with sAPPα came out at 0.78. Besides, the Aβ42 in the assay on Aβ42 came to 0.79.
In the assay with sAPPβ, `Cc1c(C(N)=O)cc([N+](=O)[O-])cc1[N+](=O)[O-]` [compound 95, DINITOLMIDE] displayed a sAPPβ of 1.02. Also, in the assay on Aβ38, the Aβ38 stood at 1. This molecule also gave an Aβ43 in the assay on Aβ43 of 0.98. Besides, the “Ratio Aβ42/40” value with Aβ42/40 ratio stood at 0.95. In the assay on sAPPα, this molecule had a sAPPα of 0.95. Further, the Aβ42 with Aβ42 was determined as 0.9.
Regarding `CC(C)(Sc1cc(C(C)(C)C)c(O)c(C(C)(C)C)c1)Sc1cc(C(C)(C)C)c(O)c(C(C)(C)C)c1` [compound 96, PROBUCOL], the sAPPβ in the assay with sAPPβ was 1.07. This molecule also gave an Aβ38 in the assay with Aβ38 of 0.75. Also, the Aβ43 with Aβ43 worked out at 0.65. Further, in the assay with Aβ42/40 ratio, the “Ratio Aβ42/40” value was determined as 0.7. In the assay with sAPPα, the sAPPα stood at 1. Also, the Aβ42 with Aβ42 was 0.6.
On to `COc1cccc([C@@]2(O)CCCC[C@@H]2CN(C)C)c1` [compound 99, TRAMADOL], for which the sAPPβ in the assay with sAPPβ is listed as 1.11. The Aβ38 in the assay with Aβ38 amounted to 1.17. For the same molecule, the Aβ43 with Aβ43 is reported as 1.02. Besides, in the assay with Aβ42/40 ratio, the “Ratio Aβ42/40” value was found to be 0.93. In addition, the sAPPα in the assay on sAPPα is 1.04. This molecule also registered an Aβ42 in the assay with Aβ42 of 0.98.
As for `CC1(C)O[C@@H]2[C@@H](CO[C@@]3(COS(N)(=O)=O)OC(C)(C)O[C@@H]23)O1` [compound 100, TOPIRAMATE], the sAPPβ with sAPPβ is 0.78. In the assay with Aβ38, this molecule showed an Aβ38 of 0.9. The same molecule displayed an Aβ43 with Aβ43 of 1.02. The “Ratio Aβ42/40” value in the assay on Aβ42/40 ratio is 0.92. Besides, in the assay with sAPPα, the sAPPα is reported as 0.81. The Aβ42 in the assay with Aβ42 was found to be 0.79.
In turn, `CC1(C)C2CC[C@@]1(C)C(=O)C2` [compound 101, CAMPHOR (1R)] registered a sAPPβ in the assay with sAPPβ of 0.87. The Aβ38 in the assay on Aβ38 worked out at 1.08. The same molecule gave an Aβ43 in the assay on Aβ43 of 0.91. Further, the “Ratio Aβ42/40” value in the assay on Aβ42/40 ratio was determined as 1.01. In the assay with sAPPα, this molecule displayed a sAPPα of 0.92. For the same molecule, the Aβ42 in the assay with Aβ42 came out at 0.95.
In the case of `C#C[C@]1(O)CC[C@H]2[C@@H]3CCC4=Cc5oncc5C[C@]4(C)[C@H]3CC[C@@]21C` [compound 102, DANAZOL], the sAPPβ with sAPPβ stood at 0.81. Further, the Aβ38 with Aβ38 is 1.02. For the same molecule, the Aβ43 in the assay on Aβ43 is given as 1.07. Moreover, the “Ratio Aβ42/40” value in the assay on Aβ42/40 ratio came to 1.04. The sAPPα in the assay on sAPPα is on record as 0.79. The same molecule returned an Aβ42 with Aβ42 of 0.93.
The molecule `C[C@H](CCC(=O)O)[C@H]1CC[C@H]2[C@@H]3C(=O)C[C@@H]4CC(=O)CC[C@]4(C)[C@H]3CC(=O)[C@]12C` [compound 103, DEHYDROCHOLIC ACID] showed a sAPPβ in the assay on sAPPβ of 0.78. Further, in the assay with Aβ38, the Aβ38 was 1.09. This molecule also had an Aβ43 in the assay with Aβ43 of 1.01. Further, the “Ratio Aβ42/40” value in the assay on Aβ42/40 ratio was 0.99. This molecule returned a sAPPα in the assay with sAPPα of 0.75. For the same molecule, in the assay with Aβ42, the Aβ42 was 0.95.
With `COc1cc2c(cc1OC)[C@@]13CCN4CC5=CCO[C@H]6CC(=O)N2[C@H]1[C@H]6[C@H]5C[C@H]43` [compound 106, BRUCINE], the sAPPβ with sAPPβ was 0.85. Also, in the assay on Aβ38, the Aβ38 is 1.13. Further, in the assay with Aβ43, the Aβ43 was found to be 0.87. Moreover, in the assay on Aβ42/40 ratio, the “Ratio Aβ42/40” value was 1.04. In the assay with sAPPα, this molecule had a sAPPα of 0.84. Also, the Aβ42 with Aβ42 is listed as 0.98.
Regarding `O=C1CCc2cc(OCCCCc3nnnn3C3CCCCC3)ccc2N1` [compound 107, CILOSTAZOL], the sAPPβ in the assay with sAPPβ was determined as 0.68. Further, the Aβ38 in the assay on Aβ38 amounted to 1.01. In the assay with Aβ43, the Aβ43 was found to be 0.82. Also, in the assay on Aβ42/40 ratio, the “Ratio Aβ42/40” value is on record as 0.86. This molecule also registered a sAPPα with sAPPα of 0.78. Further, the Aβ42 in the assay with Aβ42 was found to be 0.85.
Consider `CC(=O)OC1CCC2(C)C(=CCC3C4CCC(=O)C4(C)CCC32)C1` (stereo not drawn) [compound 109, PRASTERONE ACETATE], for which the sAPPβ with sAPPβ is 0.55. For the same molecule, in the assay on Aβ38, the Aβ38 was 0.9. Further, the Aβ43 in the assay with Aβ43 worked out at 0.85. In addition, in the assay on Aβ42/40 ratio, the “Ratio Aβ42/40” value is recorded as 0.7. This molecule also displayed a sAPPα in the assay on sAPPα of 0.69. The molecule further had an Aβ42 in the assay with Aβ42 of 0.68.
As for `C[C@@H]1O[C@@H](OC[C@H]2O[C@@H](Oc3c(-c4ccc(OCCO)c(OCCO)c4)oc4cc(OCCO)cc(O)c4c3=O)[C@H](O)[C@@H](O)[C@@H]2O)[C@H](O)[C@H](O)[C@H]1O` [compound 110, TROXERUTIN], the sAPPβ in the assay on sAPPβ turned out to be 0.51. For the same molecule, in the assay on Aβ38, the Aβ38 stood at 0.97. The same molecule had an Aβ43 with Aβ43 of 0.95. For the same molecule, the “Ratio Aβ42/40” value in the assay on Aβ42/40 ratio was 0.93. The molecule further yielded a sAPPα in the assay on sAPPα of 0.74. This molecule also registered an Aβ42 in the assay on Aβ42 of 0.88.
As to `CCCCCCCCCCCCCCCCCCCCCCO` [compound 111, DOCOSANOL], the sAPPβ in the assay on sAPPβ worked out at 0.83. The Aβ38 with Aβ38 was 1.03. In the assay on Aβ43, this molecule displayed an Aβ43 of 0.83. For the same molecule, in the assay on Aβ42/40 ratio, the “Ratio Aβ42/40” value was determined as 0.9. For the same molecule, in the assay with sAPPα, the sAPPα worked out at 0.79. In the assay with Aβ42, this molecule displayed an Aβ42 of 0.86.
On to `CCN(CC)C(=S)SSC(=S)N(CC)CC` [compound 112], for which the sAPPβ in the assay on sAPPβ is reported as 0.89. In addition, the Aβ38 in the assay on Aβ38 was found to be 1.1. Also, the Aβ43 with Aβ43 is 0.98. Besides, in the assay on Aβ42/40 ratio, the “Ratio Aβ42/40” value is reported as 0.97. The same molecule returned a sAPPα in the assay with sAPPα of 0.78. The molecule further showed an Aβ42 in the assay on Aβ42 of 0.91.
With `CCCCCCCCCCCCCCCC[N+](C)(C)C` [compound 113, CETRIMONIUM], the sAPPβ in the assay with sAPPβ is on record as 0.59. The same molecule yielded an Aβ38 in the assay with Aβ38 of 0.56. The molecule further registered an Aβ43 in the assay with Aβ43 of 0.56. The “Ratio Aβ42/40” value in the assay on Aβ42/40 ratio was found to be 0.74. Moreover, the sAPPα in the assay with sAPPα worked out at 0.76. In the assay on Aβ42, the Aβ42 worked out at 0.71.
Take `N[C@@H]1CONC1=O` [compound 114, CYCLOSERINE]: the sAPPβ in the assay with sAPPβ is listed as 0.82. This molecule also gave an Aβ38 in the assay on Aβ38 of 1.06. Further, the Aβ43 in the assay with Aβ43 amounted to 0.85. Besides, the “Ratio Aβ42/40” value in the assay on Aβ42/40 ratio came out at 0.95. The molecule also showed a sAPPα with sAPPα of 0.84. The Aβ42 in the assay on Aβ42 turned out to be 0.92.
Regarding `Nc1ccn([C@@H]2O[C@H](CO)[C@@H](O)[C@@H]2O)c(=O)n1` [compound 115, CYTARABINE], the sAPPβ in the assay on sAPPβ is on record as 0.69. In addition, the Aβ38 with Aβ38 came to 0.99. The molecule further showed an Aβ43 in the assay on Aβ43 of 0.81. The “Ratio Aβ42/40” value in the assay on Aβ42/40 ratio was found to be 0.9. The same molecule registered a sAPPα with sAPPα of 0.74. The Aβ42 in the assay with Aβ42 is recorded as 0.8.

Source of the values: patent publication US11026942B2, “Agent for preventing and/or treating Alzheimer's disease” (KYOTO UNIVERSITY, priority 2015, dated 2021).
